Data: patent US12220404B2, “Treatment and management of augmentation in restless legs syndrome” (East Carolina University, priority 2015, dated 2025)
Entries after “also recorded” stand apart in the source; their conditions may differ.

Experiments:
wild type (WT) animals = assay: Thermal pain withdrawal reflex latencies (Hargreaves apparatus); format: in vivo, mice; conditions: for thermal withdrawal latencies: WT, pramipexole 0.5 mg/kg, SCH 39166 0.1 mg/kg
Procedure: Assessment of baseline pain withdrawal reflex latencies (“thermal pain”): RLS is first and foremost a sensory disorder that is accompanied by a motor component. The clinical sensations (“urge to move”) stem from deep muscle tissues and are considered “painful” by many, if not most patients, unless acted on immediately (moving of the limbs). Pain from deep muscles is carried by both unmyelinated C-fibers (both peptidergic and non-peptidergic) as well as a-∂ fiber. Pain due to thermal stimulus energy is carried specifically by subsets of these nociceptors that express the transient receptor potential-V1 protein (TRPV1). These TRPV1 expressing nociceptors also have extensive cutaneous distribution and are easily activated by a heat source applied to the surface of the skin. Thus the thermal pain stimulus tested in the Hargreaves apparatus (IITC, Inc., Life Science, Model 39D) provides an appropriate surrogate for monitoring changes in deep muscle nociceptor activity that may be present in RLS, and the latencies to withdraw the hindpaw from a noxious thermal stimulus applied to the plantar surface of the hindpaw provide a measure of pain sensitivity. Animals will be removed from their home cages and placed individually in the small Plexiglas containers of the Hargreave's system (4″ width×4″ length×5″ height). The behavior room has optional low light settings to minimize visual perturbations. Each day, animals will be acclimatized on the Hargreaves platform for 1-2 hrs. Subsequently, baseline withdrawal latencies will be determined for each animal, with five independent trials performed per hindpaw per session and a mean latency calculated for each day. The tests will be administered over 4 days.
Drug injection protocol: After establishing baseline parameters, each animal will receive in weeks 1-4 once daily a single-drug i.p. injection of the respective compound: 0.9% NaCl (sham), the D3R agonist (pramipexole) at 0.1 or 0.5 mg/kg, or the D1R antagonist ecopipam ([…]) at 0.1 mg/kg, and tested for thermal pain withdrawal tolerance (details in flow chart, FIG. 5). […] Each cohort will be treated independently of each other, but all animals will receive their respective i.p. injections daily (7 days/week) between 9-11 am in the morning, to avoid possible conflicts with the circadian cycle. Thermal pain withdrawal reflexes will be tested as above on 4 subsequent days per week in the afternoon, starting on the second day of the drug injections. Subgroups a) of each cohort will be euthanized after 1 week, with subgroups b)-d) following suite in 1-week intervals (FIG. 5).
Statistical Analysis: For the behavioral experiments, withdrawal latencies under drug conditions will be averaged and normalized to the mean of the pre-drug values, and statistical significance will be determined with RM ANOVA and subsequent post-hoc comparisons, as appropriate, and with a set <0.05 (SigmaPlot, Systat, San Jose, CA). For the data analysis of the Western blots, we will use One-way ANOVA testing to assess significance, and identify group differences with appropriate post-hoc comparisons (e.g. Holm-Sidak).

[1] = test system: isolated spinal cord (monosynaptic stretch reflex); assay: Spinal reflex amplitudes (SRAs) in the isolated spinal cord; parameters: species or system mice
Procedure: Animals will be anesthetized with ketamine/xylazine and decapitated, and the spinal cord carefully dissected out of the body cavity and placed in a Sylgard-lined (Dow Corning, Midland MI) Petri dish in cooled (<4° C.) artificial cerebrospinal fluid (ACSF) containing (in mM); 125 NaCl, 2.5 KCl, 2 CaCl2, 1 MgCl2, 25 glucose, 1.25 NaH2PO4, and 26 NaHCO3 at a pH of 7.4, oxygenated with 95% O2-5% CO2. After opening and removing the dura mater, to facilitate the access of ACSF to the cord, dorsal and ventral roots will be identified and pinned out with small insect pins. Preparations will either be left intact (in animals less than 7 days old) or hemisected mid-sagittally (>1 week old animals). The hemisection in the older animals helps better oxygenate the tissue and extends the life expectancy of the isolated preparation. Under these conditions, we can hold the spinal cord functionally alive for more than 24 hours, and we have been able test SRAs in individual preparations for up to 48 hours. After a 30-60 min recovery at room temperature, glass suction electrodes will be placed on the distal parts of dorsal and ventral roots of lumbar segments L2-L5. […] For the analyses, reflex responses will be rectified and the calculated integrals of these responses measured and compared between epochs of identical duration before and after drug application. For short-term assessments of drug effects, we will average the last ten consecutive SRAs measured before drug application with the last ten consecutive SRAs after 30 min of application of the drugs per epoch. […]
Statistical Analysis: For the experiments on the isolated spinal cords, we will measure SRAs under control and drug conditions, and data will be averaged and normalized to the mean of the pre-drug values. Statistical significance will be determined with One-Way ANOVA and subsequent post-hoc comparisons or t-tests, as appropriate, and with a set <0.05 (SigmaPlot, Systat, San Jose, CA).

[2] = short-term bath application (less than 30 min)

With `CN1CCc2cc(Cl)c(O)cc2[C@H]2c3ccccc3CC[C@@H]21` [SCH 39166, ecopipam] the thermal withdrawal latencies (wild type (WT) animals; acute treatment) was 131+/−6.5 % of control, the “acute modulation of thermal withdrawal responses (FIG. 2)” value (wild type (WT) animals; acute treatment, result in words) was “increase withdrawal latencies” and the “withdrawal latencies after single injection of D1R antagonist” value (wild type (WT) animals; animals treated for 4 weeks with pramipexole, 1 hour post-injection) was 150.+/−15%. The “long-term effect on withdrawal latencies” value (wild type (WT) animals; daily for 4 weeks, current data sets, result in words) was “does not have a significant effect”, the “withdrawal latencies after single injection of D1R antagonist” value (wild type (WT) animals; non-treated group, week 1, one hour after the injection) was 151 +/−13% and the “spinal reflex amplitudes (SRAs)” value ([1]; additional bath-application after prolonged pramipexole exposure) was “decreased”.
For `Oc1cc2c(cc1O)C(c1ccccc1)CNCC2` (stereo not drawn) [SKF 38393], the “spinal reflex amplitudes (SRAs)” value [1, 2] was “significantly increased them; also recorded: increases SRAs”.
In the case of `CCCN1C[C@H](CSC)C[C@@H]2c3cccc4[nH]cc(c34)C[C@H]21` [pergolide], the “spinal reflex amplitudes (SRAs)” value [1, 2] is reported as “significantly decreased SRAs; also recorded: significantly decreases SRAs over control”.
With `CCCN[C@H]1CCc2nc(N)sc2C1` [pramipexole] the thermal withdrawal latencies (wild type (WT) animals; acute treatment) was 152.9+/−2.8 % of control, the post-injection withdrawal latencies (wild type (WT) animals; after 4 weeks of daily injections with pramipexole, 1 hr post-injection) was 75.2+/−32% and the “post injection withdrawal latencies” value (wild type (WT) animals; week 1, one hour after the first injection, 0.5 mg/kg pramipexole) was 194.65%±27. For the same compound, the “withdrawal latencies to a thermal stimulus, weekly average” value (from here on “withdrawal latencies … weekly average”) (wild type (WT) animals; week 1, pramipexole 0.5 mg/kg/day chronic injections) was 204.81%±6.3 % of control, the “withdrawal latencies … weekly average” value (wild type (WT) animals; week 2, pramipexole 0.5 mg/kg/day chronic injections) was 158+/−12 % of control and the “withdrawal latencies … weekly average” value (wild type (WT) animals; week 3, pramipexole 0.5 mg/kg/day chronic injections) was 135+/−6.5 % of control. The “withdrawal latencies … weekly average” value (wild type (WT) animals; week 4, pramipexole 0.5 mg/kg/day chronic injections) was 85+/−11 % of control.
